Test results: ChEMBL document CHEMBL1201862, “PubChem BioAssay data set” (2004)
Calls of active or inactive are those of the source. For most assays here, no stated cut-off is given here; in the data, actives have a measured IC50 and inactives only a lower limit.

Key:
[1] = molecular target: T1, Ubiquitin-conjugating enzyme E2 N (Homo sapiens, UniProt P61088); assay type: functional;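 further: Dose-response confirmation in a TR-FRET assay detecting UBC13-driven polyubiquitin chain formation, inhibition measured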
T1 sequence (P61088 whole entry): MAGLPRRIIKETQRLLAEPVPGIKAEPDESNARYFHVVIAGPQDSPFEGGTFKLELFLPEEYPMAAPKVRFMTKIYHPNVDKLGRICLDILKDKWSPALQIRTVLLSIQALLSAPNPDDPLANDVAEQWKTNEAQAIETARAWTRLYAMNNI

[2] = molecular target: DNA dC->dU-editing enzyme APOBEC-3G (Homo sapiens, UniProt Q9HC16); test: Dose Response confirmation of small molecule APOBEC3G DNA Deaminase Inhibitors via a fluorescence-based single-stranded DNA deaminase assay. [Related pubchem assays (depositor defined):AID493012, AID493028]; assay type: functional
DNA dC->dU-editing enzyme APOBEC-3G, sequence (Q9HC16 whole entry): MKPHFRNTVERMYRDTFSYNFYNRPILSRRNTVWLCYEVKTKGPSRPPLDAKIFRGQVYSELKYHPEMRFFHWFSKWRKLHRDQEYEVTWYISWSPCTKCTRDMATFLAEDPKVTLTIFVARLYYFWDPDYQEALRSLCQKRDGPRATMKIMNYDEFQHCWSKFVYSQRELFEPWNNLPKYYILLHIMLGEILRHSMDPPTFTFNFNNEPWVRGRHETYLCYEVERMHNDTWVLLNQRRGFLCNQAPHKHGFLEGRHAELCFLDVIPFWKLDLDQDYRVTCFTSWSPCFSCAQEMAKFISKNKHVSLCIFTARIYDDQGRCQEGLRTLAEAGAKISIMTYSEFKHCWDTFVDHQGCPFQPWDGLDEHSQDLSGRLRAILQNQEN

[3] = molecular target: Glyceraldehyde-3-phosphate dehydrogenase (Homo sapiens, UniProt P04406)
Glyceraldehyde-3-phosphate dehydrogenase, sequence (P04406 whole entry): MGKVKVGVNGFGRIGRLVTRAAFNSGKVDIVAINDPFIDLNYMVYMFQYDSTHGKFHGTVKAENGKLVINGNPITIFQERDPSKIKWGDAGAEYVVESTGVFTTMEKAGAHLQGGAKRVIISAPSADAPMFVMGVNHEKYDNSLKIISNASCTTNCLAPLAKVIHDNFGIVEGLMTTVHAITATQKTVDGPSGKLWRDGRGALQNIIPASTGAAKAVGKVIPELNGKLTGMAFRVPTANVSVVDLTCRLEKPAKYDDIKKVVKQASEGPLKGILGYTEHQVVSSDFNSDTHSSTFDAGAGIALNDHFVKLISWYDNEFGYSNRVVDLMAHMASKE

Leucine aminopeptidase = molecular target: T2, Leucine aminopeptidase (Plasmodium falciparum 3D7, UniProt Q8IL11); test: P. falciparum M17LAP inhibitors, primary screen, biochemical, fluorogenic H-Leu-NHMec substrate, 1536-well (AID 1619); assay type: functional
T2 sequence (Q8IL11 whole entry): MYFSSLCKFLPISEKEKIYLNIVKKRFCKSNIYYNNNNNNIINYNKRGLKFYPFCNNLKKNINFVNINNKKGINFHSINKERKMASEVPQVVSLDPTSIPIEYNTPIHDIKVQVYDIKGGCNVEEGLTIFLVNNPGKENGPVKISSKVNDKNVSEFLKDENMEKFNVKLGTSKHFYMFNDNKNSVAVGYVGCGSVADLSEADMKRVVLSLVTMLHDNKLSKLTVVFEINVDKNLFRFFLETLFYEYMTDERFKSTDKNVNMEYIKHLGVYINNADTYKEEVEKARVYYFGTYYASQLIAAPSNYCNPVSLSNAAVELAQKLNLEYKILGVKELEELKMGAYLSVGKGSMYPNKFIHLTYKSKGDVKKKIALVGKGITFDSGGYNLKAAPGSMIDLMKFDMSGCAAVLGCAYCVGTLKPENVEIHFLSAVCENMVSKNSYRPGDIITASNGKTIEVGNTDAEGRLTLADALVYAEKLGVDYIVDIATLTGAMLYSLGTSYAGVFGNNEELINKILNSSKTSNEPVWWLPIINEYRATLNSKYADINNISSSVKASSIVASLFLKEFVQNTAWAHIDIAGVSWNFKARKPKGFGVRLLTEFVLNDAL

N=C(N)Nc1ccc2[nH]c3c(c2c1)C[C@@]1(O)[C@H]2Cc4ccc(O)c5c4[C@@]1(CCN2CC1CC1)[C@H]3O5
IC50 [1]: > 20 µM (inactive)
IC50 [2]: 24.4 µM (active)

CCN1CCN(C2=C(Cl)C(=O)N(c3cccc(C)c3)C2=O)CC1
IC50 [3]: > 50 µM (inconclusive)

O=C(CSc1nnc[nH]1)Nc1ccc2c(c1)CCC2
IC50 (Leucine aminopeptidase): 22.3 µM (active)

CCOc1ccc(C(CC(=O)O)C(=O)O)cc1 (stereo unspecified)
IC50 [3]: > 100 µM (not active)

Cc1ccc(NC(=O)CSc2ncc(S(=O)(=O)c3ccccc3)c(O)n2)cc1C
IC50 (Leucine aminopeptidase): 4.56 µM (active)
